Reference: PMC12679550 (ACS Chemical Neuroscience, 2025)
Read-outs that look alike come from different tables or passages of the source.

Experiments:
[1] = target: T1, α1BR (Homo sapiens, UniProt P35368); assay: Eurofins Cerep radioligand binding screen; details: 10 μM
T1 construct: Eurofins Cerep; host or cells: cell membrane homogenates
Method: (§1) The compounds were screened at each target once, in duplicate, at 100 nM and 10 μM. […] The assay was valid if the reliability criteria, K i or IC50 values within 1/2 Log of historical values, were met. Radioligand binding assay methods were as previously described with only minor modifications , (see table in Supplementary Figure S4 for radioligands, protein sources, and assay test conditions). Briefly, cell membrane homogenates were incubated with either an antagonist or agonist radioligand in the absence or presence of the test compound in a buffer. A specific unlabeled agonist or antagonist at the target determined nonspecific binding. Following incubation, the samples were filtered rapidly under vacuum through glass fiber filters presoaked in a buffer and rinsed several times with an ice-cold buffer using a 48-sample or 96-sample cell harvester. Using a scintillation cocktail, the filters were counted for radioactivity in a scintillation counter. Compound binding was calculated as a percent inhibition of the binding of the radioactively labeled ligand specific for each target. Preparatory methods for enzyme inhibition assays were similar to radioligand binding assays. These assays involved using a known substrate, stimulus, and/or tracer, and detection methods included LANCE, fluorimetry, photometry, luminescence, or scintillation counting (see table in Supplementary Figure S4). Results of the screening assays showing an inhibition or stimulation higher than 50% were designated “hits” and considered to represent significant effects of the test compounds.

[2] = target: T2, α1DR (Homo sapiens, UniProt P25100); assay: Eurofins Cerep radioligand binding screen; details: 10 μM
T2 construct: Eurofins Cerep; host or cells: cell membrane homogenates
Method: as §1

[3] = target: T3, α2BR (Homo sapiens, UniProt P18089); assay: Eurofins Cerep radioligand binding screen; details: 10 μM; also previously reported
T3 construct: Eurofins Cerep; host or cells: cell membrane homogenates
Method: as §1

[4] = target: T4, δ-opioid receptors (Homo sapiens, UniProt P41143); assay: Eurofins Cerep radioligand binding screen; details: 10 μM
T4 construct: Eurofins Cerep; host or cells: cell membrane homogenates
Method: as §1

[5] = target: T5, κ-opioid receptors (Homo sapiens, UniProt P41145); assay: Eurofins Cerep radioligand binding screen; details: 10 μM
T5 construct: Eurofins Cerep; host or cells: cell membrane homogenates
Method: as §1

[6] = target: T6, μ-opioid receptors (Homo sapiens, UniProt P35372); assay: Eurofins Cerep radioligand binding screen; details: 10 μM
T6 construct: Eurofins Cerep; host or cells: cell membrane homogenates
Method: as §1

[7] = test system: any enzyme tested; assay: Eurofins Cerep enzyme inhibition screen, all enzymes tested; assay type: biochemical; details: 10 μM
Method: (§2) The compounds were screened at each target once, in duplicate, at 100 nM and 10 μM. […] The assay was valid if the reliability criteria, K i or IC50 values within 1/2 Log of historical values, were met. Radioligand binding assay methods were as previously described with only minor modifications , (see table in Supplementary Figure S4 for radioligands, protein sources, and assay test conditions). Briefly, cell membrane homogenates were incubated with either an antagonist or agonist radioligand in the absence or presence of the test compound in a buffer. A specific unlabeled agonist or antagonist at the target determined nonspecific binding. Following incubation, the samples were filtered rapidly under vacuum through glass fiber filters presoaked in a buffer and rinsed several times with an ice-cold buffer using a 48-sample or 96-sample cell harvester. Using a scintillation cocktail, the filters were counted for radioactivity in a scintillation counter. Compound binding was calculated as a percent inhibition of the binding of the radioactively labeled ligand specific for each target. Preparatory methods for enzyme inhibition assays were similar to radioligand binding assays. These assays involved using a known substrate, stimulus, and/or tracer, and detection methods included LANCE, fluorimetry, photometry, luminescence, or scintillation counting (see table in Supplementary Figure S4). […]

[8] = target: T7, α1AR (Homo sapiens, UniProt P35348); assay: Eurofins Cerep radioligand binding screen; set-up: Eurofins Cerep; host or cells: cell membrane homogenates; details: 10 μM
T7 sequence (P35348 1-466): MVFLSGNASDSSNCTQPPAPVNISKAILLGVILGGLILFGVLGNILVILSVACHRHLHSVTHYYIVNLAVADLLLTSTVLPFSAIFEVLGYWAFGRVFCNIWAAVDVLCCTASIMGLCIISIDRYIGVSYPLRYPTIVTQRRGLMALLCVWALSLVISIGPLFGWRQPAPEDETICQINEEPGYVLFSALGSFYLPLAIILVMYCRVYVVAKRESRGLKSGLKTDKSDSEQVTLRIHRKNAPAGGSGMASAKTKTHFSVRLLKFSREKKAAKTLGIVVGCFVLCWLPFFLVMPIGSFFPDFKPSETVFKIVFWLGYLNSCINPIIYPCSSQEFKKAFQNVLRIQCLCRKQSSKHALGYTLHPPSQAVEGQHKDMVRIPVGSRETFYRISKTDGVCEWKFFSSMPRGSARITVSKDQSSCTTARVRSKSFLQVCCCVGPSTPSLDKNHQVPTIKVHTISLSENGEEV
Method: as §1

[9] = target: T8, α2AR (Homo sapiens, UniProt P08913); assay: Eurofins Cerep radioligand binding screen; set-up: Eurofins Cerep; host or cells: cell membrane homogenates; details: 10 μM; also previously reported
T8 sequence (P08913 1-465): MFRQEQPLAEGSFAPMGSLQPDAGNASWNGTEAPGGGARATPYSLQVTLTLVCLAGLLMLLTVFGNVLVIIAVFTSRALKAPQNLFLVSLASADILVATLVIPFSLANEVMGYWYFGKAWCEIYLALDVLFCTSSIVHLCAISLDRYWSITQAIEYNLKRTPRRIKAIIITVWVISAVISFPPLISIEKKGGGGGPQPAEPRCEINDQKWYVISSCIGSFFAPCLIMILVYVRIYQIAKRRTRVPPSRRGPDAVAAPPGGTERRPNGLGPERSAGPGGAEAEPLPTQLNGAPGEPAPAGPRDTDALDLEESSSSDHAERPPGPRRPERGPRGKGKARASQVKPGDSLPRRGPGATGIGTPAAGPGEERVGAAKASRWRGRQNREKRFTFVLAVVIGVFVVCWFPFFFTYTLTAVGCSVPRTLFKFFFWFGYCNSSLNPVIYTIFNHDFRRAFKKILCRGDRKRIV
Method: as §1

[10] = target: T9, serotonin transporter (Homo sapiens, UniProt P31645); assay: Eurofins Cerep radioligand binding screen; details: 10 μM
T9 construct: Eurofins Cerep; host or cells: cell membrane homogenates
Method: as §1

[11] = test system: voltage-gated sodium channels; assay: Eurofins Cerep radioligand binding screen; details: 10 μM
Method: as §1

[12] = target: T10, COX2 (Homo sapiens, UniProt P35354); assay: Eurofins Cerep enzyme inhibition screen; assay type: biochemical; details: 10 μM
T10 construct: Eurofins Cerep
Method: as §2

[13] = target: human α2Rs; details: in vitro, literature, cited from earlier work
[14] = target: human α1Rs; details: in vitro, literature, cited from earlier work
[15] = target: β1 and β2 adrenoceptors; details: in vitro; literature; read-out: Affinity (Kd) at β1 and β2 adrenoceptors; cited from earlier work
[16] = test system: pERK in nontransfected HEK293 cells; assay: ERK phosphorylation in nontransfected, knockout and antagonist-cotreated HEK293 cells; assay type: cell-based, human; details: for pERK, nontransfected HEK293: concentration not given; for pERK-stimulating effect with 100 nM atipamezole cotreatment / pERK-stimulating effect with 100 nM prazosin cotreatment: HEK293; for pERK-stimulating effect with 100 nM prazosin cotreatment: CLON and ISO 1 μM, mitragynine 1 μM
Method: (§3) Cells were serum-starved for 75 min and treated with ligands in 1 mL of fresh DMEM in the absence of serum as described in the figure legends. Cells were washed three times with ice-cold phosphate-buffered saline, lysed on ice in Radio-Immunoprecipitation Assay buffer, centrifuged to clarify the supernatant, normalized to protein concentration, and boiled in Laemmli sample buffer. Following sodium dodecyl sulfate–polyacrylamide gel electrophoresis, gels were transferred, blocked in 5% BSA and incubated with 1:1000 rabbit phospho-ERK1/2 (#9101, Cell Signaling Technology, Danvers, MA) and imaged with enhanced chemiluminescence (ECL). Blots were stripped and reprobed with rabbit ERK1/2 (#9102, Cell Signaling Technology) antibody and imaged with ECL to assess protein loading.

[17] = target: T8, α2AR; details: α2AR-expressing CHO-K1 cells
[18] = target: T8, α2AR; assay: cell-based
[19] = target: T8, α2AR; details: agonist mode; CHO-K1 cells
[20] = target: T11, rat α2AR (Rattus norvegicus, UniProt P22909); details: agonist mode; CHO-K1 cells
T11 sequence (P22909 1-465): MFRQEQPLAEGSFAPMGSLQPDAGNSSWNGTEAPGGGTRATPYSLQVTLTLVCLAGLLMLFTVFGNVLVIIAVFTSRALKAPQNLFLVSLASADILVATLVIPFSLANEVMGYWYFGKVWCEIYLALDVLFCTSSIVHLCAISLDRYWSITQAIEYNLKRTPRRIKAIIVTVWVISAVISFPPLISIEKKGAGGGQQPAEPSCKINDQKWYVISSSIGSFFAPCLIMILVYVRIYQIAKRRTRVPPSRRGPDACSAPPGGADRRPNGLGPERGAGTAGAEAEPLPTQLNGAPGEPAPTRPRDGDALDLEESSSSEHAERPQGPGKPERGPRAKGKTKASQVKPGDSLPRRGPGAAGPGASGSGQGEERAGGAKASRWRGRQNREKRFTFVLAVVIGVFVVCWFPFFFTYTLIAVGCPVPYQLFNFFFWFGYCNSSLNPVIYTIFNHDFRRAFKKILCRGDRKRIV

[21] = target: T11, rat α2AR; details: agonist mode; HEK293 cells; Figure S2
[22] = target: T8, α2AR; details: data not shown
[23] = target: T7, α1AR; assay: cell-based
[24] = test system: α1A and α1BR; details: read-out: EC50, α1A and α1BR-pERK; a recent report; cited from earlier work
[25] = test system: pERK in HEK293 cells transfected with human α2ARs; assay: ERK phosphorylation in α2AR-transfected HEK293 cells; assay type: cell-based; details: 1 μM, 5 min
Method: as §3

[26] = HEK293, read-out: Emax as percent of clonidine's maximum response, α11
[27] = HEK293, read-out: Emax as percent of clonidine's maximum response, αq

T3 sequence (P18089 whole entry): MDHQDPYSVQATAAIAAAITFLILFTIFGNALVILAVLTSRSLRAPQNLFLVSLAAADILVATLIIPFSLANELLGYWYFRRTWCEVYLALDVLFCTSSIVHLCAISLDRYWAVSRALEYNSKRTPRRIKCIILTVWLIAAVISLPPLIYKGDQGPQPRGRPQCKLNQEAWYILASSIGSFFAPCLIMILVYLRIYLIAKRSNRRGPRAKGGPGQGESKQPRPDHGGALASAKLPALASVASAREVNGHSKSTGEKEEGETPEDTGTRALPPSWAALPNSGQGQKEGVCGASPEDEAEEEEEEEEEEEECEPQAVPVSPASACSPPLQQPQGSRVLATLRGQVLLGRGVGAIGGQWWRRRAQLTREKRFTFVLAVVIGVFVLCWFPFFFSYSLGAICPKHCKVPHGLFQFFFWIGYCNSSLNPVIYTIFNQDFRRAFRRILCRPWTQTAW
T2 sequence (P25100 whole entry): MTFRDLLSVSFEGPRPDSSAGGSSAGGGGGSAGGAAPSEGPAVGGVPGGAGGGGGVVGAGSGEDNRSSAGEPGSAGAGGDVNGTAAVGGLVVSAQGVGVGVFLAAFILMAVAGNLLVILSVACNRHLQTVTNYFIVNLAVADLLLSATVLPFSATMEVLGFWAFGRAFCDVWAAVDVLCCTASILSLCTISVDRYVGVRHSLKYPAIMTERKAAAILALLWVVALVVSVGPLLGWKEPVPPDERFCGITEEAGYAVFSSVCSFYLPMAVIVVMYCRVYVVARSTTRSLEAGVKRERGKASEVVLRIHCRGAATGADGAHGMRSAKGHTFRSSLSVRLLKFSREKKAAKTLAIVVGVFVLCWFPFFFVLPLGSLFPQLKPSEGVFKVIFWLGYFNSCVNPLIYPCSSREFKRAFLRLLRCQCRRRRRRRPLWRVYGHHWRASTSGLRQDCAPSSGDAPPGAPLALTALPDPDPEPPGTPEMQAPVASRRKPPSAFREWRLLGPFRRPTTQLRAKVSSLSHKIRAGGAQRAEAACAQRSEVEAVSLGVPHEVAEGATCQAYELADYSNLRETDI
T5 sequence (P41145 whole entry): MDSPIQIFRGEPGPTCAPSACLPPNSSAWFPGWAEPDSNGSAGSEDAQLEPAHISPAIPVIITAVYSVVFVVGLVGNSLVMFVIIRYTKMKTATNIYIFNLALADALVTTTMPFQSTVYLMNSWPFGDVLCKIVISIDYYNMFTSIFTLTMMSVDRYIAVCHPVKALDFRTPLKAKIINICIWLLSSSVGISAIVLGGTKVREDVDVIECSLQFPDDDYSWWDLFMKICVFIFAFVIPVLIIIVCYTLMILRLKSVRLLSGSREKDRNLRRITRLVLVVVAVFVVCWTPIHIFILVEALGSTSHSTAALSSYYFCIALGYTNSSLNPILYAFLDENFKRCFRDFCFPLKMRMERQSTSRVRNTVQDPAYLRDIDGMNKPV
T10 sequence (P35354 18-604): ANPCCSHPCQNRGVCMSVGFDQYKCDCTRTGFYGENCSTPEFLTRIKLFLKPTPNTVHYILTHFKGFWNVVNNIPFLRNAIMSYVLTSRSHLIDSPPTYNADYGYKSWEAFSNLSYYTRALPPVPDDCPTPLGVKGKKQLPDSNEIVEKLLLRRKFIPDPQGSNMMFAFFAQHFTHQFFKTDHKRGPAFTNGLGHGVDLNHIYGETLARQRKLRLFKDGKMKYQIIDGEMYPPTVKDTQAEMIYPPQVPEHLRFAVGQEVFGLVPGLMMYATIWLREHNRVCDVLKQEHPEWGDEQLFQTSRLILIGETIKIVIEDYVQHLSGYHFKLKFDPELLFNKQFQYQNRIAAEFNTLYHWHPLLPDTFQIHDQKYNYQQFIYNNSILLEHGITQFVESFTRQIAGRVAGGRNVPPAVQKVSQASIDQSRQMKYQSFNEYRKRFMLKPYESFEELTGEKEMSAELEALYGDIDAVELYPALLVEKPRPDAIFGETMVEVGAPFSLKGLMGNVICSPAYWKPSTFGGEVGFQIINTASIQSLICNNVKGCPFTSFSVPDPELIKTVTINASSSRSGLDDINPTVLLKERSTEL
T9 sequence (P31645 whole entry): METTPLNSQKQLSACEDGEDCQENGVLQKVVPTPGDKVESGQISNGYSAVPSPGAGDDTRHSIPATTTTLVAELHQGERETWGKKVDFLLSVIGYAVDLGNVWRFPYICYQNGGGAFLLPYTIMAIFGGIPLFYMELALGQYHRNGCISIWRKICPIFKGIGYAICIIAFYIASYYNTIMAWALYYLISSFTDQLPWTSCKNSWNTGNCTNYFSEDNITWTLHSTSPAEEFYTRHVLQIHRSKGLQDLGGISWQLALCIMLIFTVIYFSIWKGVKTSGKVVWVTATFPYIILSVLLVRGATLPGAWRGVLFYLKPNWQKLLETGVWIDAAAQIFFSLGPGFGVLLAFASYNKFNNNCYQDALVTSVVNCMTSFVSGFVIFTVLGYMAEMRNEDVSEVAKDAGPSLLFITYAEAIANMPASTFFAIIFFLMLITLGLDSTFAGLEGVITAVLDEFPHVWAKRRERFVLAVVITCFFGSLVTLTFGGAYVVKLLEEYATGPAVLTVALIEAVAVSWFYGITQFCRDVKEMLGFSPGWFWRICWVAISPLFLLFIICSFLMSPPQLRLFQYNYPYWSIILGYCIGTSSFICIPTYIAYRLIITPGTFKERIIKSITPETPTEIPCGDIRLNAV
T1 sequence (P35368 whole entry): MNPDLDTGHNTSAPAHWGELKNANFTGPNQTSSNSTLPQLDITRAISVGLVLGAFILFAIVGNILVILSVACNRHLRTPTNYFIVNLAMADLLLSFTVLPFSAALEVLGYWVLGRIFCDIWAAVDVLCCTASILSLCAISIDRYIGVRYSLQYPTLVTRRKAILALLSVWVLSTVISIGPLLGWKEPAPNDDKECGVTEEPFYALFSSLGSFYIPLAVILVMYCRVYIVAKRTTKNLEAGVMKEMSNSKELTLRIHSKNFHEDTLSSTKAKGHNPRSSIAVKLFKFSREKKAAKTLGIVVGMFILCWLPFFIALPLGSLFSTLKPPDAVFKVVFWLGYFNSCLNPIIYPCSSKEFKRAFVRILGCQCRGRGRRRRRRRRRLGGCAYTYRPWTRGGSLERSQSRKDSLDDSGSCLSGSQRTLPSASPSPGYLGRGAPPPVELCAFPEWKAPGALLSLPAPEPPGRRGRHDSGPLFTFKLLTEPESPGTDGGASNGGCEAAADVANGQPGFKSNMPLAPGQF
T6 sequence (P35372 whole entry): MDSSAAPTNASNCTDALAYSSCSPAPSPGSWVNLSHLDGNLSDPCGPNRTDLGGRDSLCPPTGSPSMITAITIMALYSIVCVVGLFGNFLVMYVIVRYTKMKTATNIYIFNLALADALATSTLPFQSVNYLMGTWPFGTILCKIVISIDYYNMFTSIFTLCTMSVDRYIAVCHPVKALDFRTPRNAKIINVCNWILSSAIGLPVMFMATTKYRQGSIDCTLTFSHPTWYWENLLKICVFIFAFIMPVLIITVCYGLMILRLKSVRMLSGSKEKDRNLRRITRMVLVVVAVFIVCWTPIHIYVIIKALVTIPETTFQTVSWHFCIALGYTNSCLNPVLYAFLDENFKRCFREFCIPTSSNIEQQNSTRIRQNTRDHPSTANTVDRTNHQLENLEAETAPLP
T4 sequence (P41143 whole entry): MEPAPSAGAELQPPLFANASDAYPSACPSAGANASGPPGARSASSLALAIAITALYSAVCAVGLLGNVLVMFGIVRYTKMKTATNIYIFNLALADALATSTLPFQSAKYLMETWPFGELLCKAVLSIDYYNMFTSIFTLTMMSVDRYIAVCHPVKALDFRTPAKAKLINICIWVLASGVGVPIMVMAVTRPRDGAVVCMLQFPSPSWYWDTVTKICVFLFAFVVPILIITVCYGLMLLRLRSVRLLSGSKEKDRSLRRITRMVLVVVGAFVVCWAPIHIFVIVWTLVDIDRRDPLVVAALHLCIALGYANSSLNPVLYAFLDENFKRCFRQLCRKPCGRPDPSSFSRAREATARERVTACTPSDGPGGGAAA

CC[C@@H]1CN2CC[C@@]3(O)C(=Nc4cccc(OC)c43)[C@@H]2C[C@@H]1/C(=C\OC)C(=O)OC [7-Hydroxymitragynine]
Inhibition of specific radioligand binding, α1B [1]: less than 15%
Inhibition of specific radioligand binding, α1D [2]: less than 15%
Inhibition of specific radioligand binding, α2B [3]: less than 15%
Inhibition of radioligand binding, δ-opioid receptors [4]: more than 50%
Inhibition of radioligand binding, κ-opioid receptors [5]: more than 50%
Inhibition of radioligand binding, μ-opioid receptors [6]: more than 50%
Inhibition of the activity of enzymes tested [7]: did not inhibit the activity of any enzyme tested
Inhibition of specific radioligand binding, α1A [8]: less than 15%
Inhibition of specific radioligand binding, α2A [9]: less than 15%

CC[C@@H]1CN2CCc3c([nH]c4cccc(O)c34)[C@@H]2C[C@@H]1/C(=C\OC)C(=O)OC [9-Hydroxycorynantheidine]
Inhibition of radioligand binding, serotonin transporter [10]: ~58%
Inhibition of radioligand binding, voltage-gated sodium channels [11]: ~57%
Inhibition of specific radioligand binding, α1D [2]: more than 60%
Inhibition of specific radioligand binding, α2B [3]: less than 25%
Inhibition of COX2 [12]: > 70%
Inhibition of specific radioligand binding, α1A [8]: more than 60%
Inhibition of specific radioligand binding, α2A [9]: less than 25%

COc1cc2nc(N3CCN(C(=O)c4ccco4)CC3)nc(N)c2cc1OC [Prazosin, prazosin]
Kd ([13]; read-out: Affinity (Kd) at each of the human α2Rs): ≥ 0.3 µM
Affinity (Kd) at each of the α1Rs [14]: single-digit nM or higher affinity
Kd [15]: ≥ 8 µM

Brc1c(NC2=NCCN2)ccc2nccnc12 [UK 14, 304 (brimonidine), brimonidine, reference compound]
pERK, nontransfected HEK293 [16]: did not increase pERK
β-arrestin2 recruitment, agonist mode [17]: robust α2AR-β-arrestin2 recruitment

CCC1(c2cnc[nH]2)Cc2ccccc2C1 [atipamezole]
β-arrestin2 recruitment, agonist mode [17]: did not recruit β-arrestin2
Affinity (Kd) at each of the human α2Rs [13]: double-digit nM
Kd ([14]; read-out: Affinity (Kd) at each of the α1Rs): ≥ 1 µM
Kd [15]: > 30 µM
Kb [18]: 0.00692 µM

Clc1cccc(Cl)c1N=C1NCCN1 [clonidine]
pERK-stimulating effect in Gαq/11 knockout HEK293 cells ([16]; 1 μM, 5 min, vs CRISPR scrambled): abolished
pERK-stimulating effect with 100 nM atipamezole cotreatment [16]: did not affect
pERK-stimulating effect with 100 nM prazosin cotreatment [16]: abolished
Effect on forskolin-stimulated cAMP, human α2AR [19]: decreased forskolin-stimulated cAMP production
Effect on forskolin-stimulated cAMP, rat α2AR [20]: agonist
Effect on forskolin-induced cAMP, rat α2AR in HEK293 [21]: attenuated forskolin-induced cAMP production
Activation of Gαq or Gα11 via α2ARs [22]: no effect
Emax [23, 26]: 100%
Emax [23, 27]: 100%
EC50 [24]: < 0.1 µM

CNC[C@H](O)c1ccc(O)c(O)c1 [epinephrine]
Emax [23, 26]: 279%

CC(C)NCC(O)c1ccc(O)c(O)c1 (stereo not shown) [isoproterenol]
pERK relative to buffer, α2AR-transfected HEK293 [25]: significantly increased pERK
pERK relative to buffer, nontransfected HEK293 ([16]; 1 μM, 5 min): stimulated pERK
pERK-stimulating effect with 100 nM atipamezole cotreatment [16]: not affected
pERK-stimulating effect with 100 nM prazosin cotreatment [16]: not affected

CC(Oc1c(Cl)cccc1Cl)C1=NCCN1 (stereo not shown) [lofexidine]
EC50 ([23]; EC50, α11, α1AR-Gα11): 0.112 µM
EC50 ([23]; EC50, αq, α1AR-Gαq): 0.0955 µM
Emax [23, 26]: 76%
Emax [23, 27]: 84%

CNC[C@H](O)c1cccc(O)c1 [phenylephrine]
pERK, nontransfected HEK293 [16]: robust increases in pERK
